Among the data in US7423158B2, “Amino-5-[4-(difluoromethoxy)phenyl]-5-phenylimidazolone compounds for the inhibition of β-secretase” (Wyeth, priority 2005, dated 2008) are melting point values, retold here.

As to `CN1C(=O)C(c2ccc(OC(F)F)cc2)(c2cccc(CCCCC#N)c2)N=C1N` (centres unmarked) [Example 14, 5-(3-{2-Amino-4-[4-(difluoromethoxy)phenyl]-1-methyl-5-oxo-4,5-dihydro-1H-imidazol-4-yl}phenyl)pentanenitrile], the melting point (in general, the temperature, or range, at which the solid turns liquid) turned out to be 65 °C. Compound `C=C(F)CCc1cccc(C2(c3ccc(OC(F)F)cc3)N=C(N)N(C)C2=O)c1` (centres unmarked) [Example 17, 2-Amino-5-[4-(difluoromethoxy)phenyl]-5-[3-(3-fluorobut-3-en-1-yl)phenyl]-3-methyl-3,5-dihydro-4H-imidazol-4-one] had a melting point of 58 to 60 °C. Compound `CN1C(=O)C(c2ccc(OC(F)F)cc2)(c2cccc(CCCC(F)F)c2)N=C1N` (centres unmarked) [Example 19, 2-Amino-5-[3-(4,4-difluorobutyl)phenyl]-5-[4-(difluoromethoxy)phenyl]-3-methyl-3,5-dihydro-4H-imidazol-4-one] returned a melting point of 54 to 57 °C.

As to `CN1C(=O)C(c2ccc(OC(F)F)cc2)(c2cccc(CCCCO)c2)N=C1N` (centres unmarked) [Example 21, 2-Amino-5-[4-(difluoromethoxy)phenyl]-5-[3-(4-hydroxybutyl)phenyl]-3-methyl-3,5-dihydro-4H-imidazol-4-one], the melting point lay within 63 to 66 °C. `COCCCc1cccc(C2(c3ccc(OC(F)F)cc3)N=C(N)N(C)C2=O)c1` (centres unmarked) [Example 24, 2-Amino-5-[4-(difluoromethoxy)phenyl]-5-[3-(3-methoxypropyl)phenyl]-3-methyl-3,5-dihydro-4H-imidazol-4-one] yielded a melting point of 48 to 50 °C. As for `COCCCCc1cccc(C2(c3ccc(OC(F)F)cc3)N=C(N)N(C)C2=O)c1` (centres unmarked) [Example 28, 2-amino-5-[4-(difluoromethoxy)phenyl]-5-[3-(4-methoxybutyl)phenyl]-3-methyl-3,5-dihydro-4H-imidazol-4-one], the melting point was in the range of 36 to 39 °C.

`CCCNC(=O)c1cccc(C2(c3ccc(OC(F)F)cc3)N=C(N)N(C)C2=O)c1` (centres unmarked) [Example 29, 3-{2-Amino-4-[4-(difluoromethoxy)phenyl]-1-methyl-5-oxo-4,5-dihydro-1H-imidazol-4-yl}-N-propylbenzamide] showed a melting point of 93 to 96 °C. To `CN1C(=O)C(c2ccc(OC(F)F)cc2)(c2cccc(COCCF)c2)N=C1N` (centres unmarked) [Example 30, 2-Amino-5-[4-(difluoromethoxy)phenyl]-5-{3-[(2-fluoroethoxy)methyl]phenyl}-3-methyl-3,5-dihydro-4H-imidazol-4-one] belongs 40 to 43 °C; to `CN1C(=O)C(c2ccc(OC(F)F)cc2)(c2cccc(COCCC(F)(F)F)c2)N=C1N` (centres unmarked) [Example 31, 2-amino-5-[4-(difluoromethoxy)phenyl]-3-methyl-5-{3-[(3,3,3-trifluoropropoxy)methyl]phenyl}-3,5-dihydro-4H-imidazol-4-one], 46 to 48 °C; to `COCc1cccc(C2(c3ccc(OC(F)F)cc3)N=C(N)N(C)C2=O)c1` (centres unmarked) [Example 32, 2-amino-5-[4-(difluoromethoxy)phenyl]-5-[3-(methoxymethyl)phenyl]-3-methyl-3,5-dihydro-4H-imidazol-4-one], 70 to 72 °C. Regarding `CCCCOCc1cccc(C2(c3ccc(OC(F)F)cc3)N=C(N)N(C)C2=O)c1` (centres unmarked) [Example 33, 2-amino-5-[3-(butoxymethyl)phenyl]-5-[4-(difluoromethoxy)phenyl]-3-methyl-3,5-dihydro-4H-imidazol-4-one], the melting point was in the range of 37 to 39 °C. As to `CN1C(=O)C(c2ccc(OC(F)F)cc2)(c2cccc(COCC3CC3)c2)N=C1N` (centres unmarked) [Example 34, 2-amino-5-{3-[(cyclopropylmethoxy)methyl]phenyl}-5-[4-(difluoromethoxy)phenyl]-3-methyl-3,5-dihydro-4H-imidazol-4-one], the melting point fell in the range of 47 to 50 °C.

Regarding `CCOCc1cccc(C2(c3ccc(OC(F)F)cc3)N=C(N)N(C)C2=O)c1` (centres unmarked) [Example 35, 2-amino-5-[4-(difluoromethoxy)phenyl]-5-[3-(ethoxymethyl)phenyl]-3-methyl-3,5-dihydro-4H-imidazol-4-one], the melting point is 45 to 48 °C. For `CCCOCc1cccc(C2(c3ccc(OC(F)F)cc3)N=C(N)N(C)C2=O)c1` (centres unmarked) [Example 36, 2-amino-5-[4-(difluoromethoxy)phenyl]-3-methyl-5-[3-(propoxymethyl)phenyl]-3,5-dihydro-4H-imidazol-4-one], the melting point is 40 to 43 °C.

Compound `CN1C(=O)C(c2ccc(OC(F)F)cc2)(c2cccc(COC(CF)CF)c2)N=C1N` (centres unmarked) [Example 37, 2-amino-5-[4-(difluoromethoxy)phenyl]-5-(3-{[2-fluoro-1-(fluoromethyl)ethoxy]methyl}phenyl)-3-methyl-3,5-dihydro-4H-imidazol-4-one] showed a melting point of 46 to 50 °C. To `CN1C(=O)C(c2ccc(OC(F)F)cc2)(c2cccc(COCC(F)(F)C(F)F)c2)N=C1N` (centres unmarked) [Example 39, 2-amino-5-[4-(difluoromethoxy)phenyl]-3-methyl-5-{3-[(2,2,3,3-tetrafluoropropoxy)methyl]phenyl}-3,5-dihydro-4H-imidazol-4-one] belongs 48 to 50 °C; to `CN1C(=O)C(c2ccc(OC(F)F)cc2)(c2cccc(CCF)c2)N=C1N` (centres unmarked) [Example 55, 2-Amino-5-[4-(difluoromethoxy)phenyl]-5-[3-(2-fluoroethyl)phenyl]-3-methyl-3,5-dihydro-4H-imidazol-4-one], 60 to 63 °C; to `CN1C(=O)C(c2ccc(OC(F)F)cc2)(c2cccc(OCCCF)c2)N=C1N` (centres unmarked) [Example 59, 2-Amino-5-[4-(difluoromethoxy)phenyl]-5-[3-(3-fluoropropox-1-yl)phenyl]-3-methyl-3,5-dihydro-4H-imidazol-4-one], 161 to 162 °C. On to `CN1C(=O)C(c2ccc(OC(F)F)cc2)(c2cccc(OCCCC(F)(F)F)c2)N=C1N` (centres unmarked) [Example 62, 2-amino-5-[4-(difluoromethoxy)phenyl]-3-methyl-5-[3-(4,4,4-trifluorobutoxy)phenyl]-3,5-dihydro-4H-imidazol-4-one], for which the melting point was 82 to 85 °C. In turn, `CN1C(=O)C(c2ccc(OC(F)F)cc2)(c2cccc(OCCCCF)c2)N=C1N` (centres unmarked) [Example 64, 2-amino-5-[4-(difluoromethoxy)phenyl]-5-[3-(4-fluorobutoxy)phenyl]-3-methyl-3,5-dihydro-4H-imidazol-4-one] registered a melting point of 139 to 140 °C. Under `C=CCCc1cc(C2(c3ccc(OC(F)F)cc3)N=C(N)N(C)C2=O)ccc1F` (centres unmarked) [Example 84, 2-Amino-5-(3-but-3-en-1-yl-4fluorophenyl)-5-[4-(difluoromethoxy)phenyl]-3-methyl-3,5-dihydro-4H-imidazol-4-one] stands 55 to 58 °C; under `CN1C(=O)C(c2ccc(OC(F)F)cc2)(c2cccc(C3CC(=O)C3(C)C)c2)N=C1N` (centres unmarked) [Example 87, 2-Amino-5-[4-(difluoromethoxy)phenyl]-5-[3-(2,2-dimethyl-3-oxocyclobutyl)phenyl]-3-methyl-3,5-dihydro-4H-imidazol-4-one], 172 to 174 °C.

As to `CN1C(=O)C(c2ccc(OC(F)F)cc2)(c2cccc(C3CC(=O)C3)c2)N=C1N` (centres unmarked) [Example 88, 2-Amino-5-[4-(difluoromethoxy)phenyl]-3-methyl-5-[3-(3-oxocyclobutyl)phenyl]-3,5-dihydro-4H-imidazol-4-one], the melting point lay in the range of 68 to 70 °C.

For the compound `CN1C(=O)C(c2ccc(OC(F)F)cc2)(c2cccc(C3CC(O)C3)c2)N=C1N` (centres unmarked) [Example 89, 2-Amino-5-[4-(difluoromethoxy)phenyl]-5-[3-(3-hydroxycyclobutyl)phenyl]-3-methyl-3,5-dihydro-4H-imidazol-4-one], the melting point was in the range of 186 to 190 °C. In the case of `CCOC(=O)C=C1CC(c2cccc(C3(c4ccc(OC(F)F)cc4)N=C(N)N(C)C3=O)c2)C1` (centres unmarked) [Example 90, Ethyl [3-(3-{2-Amino-4-[4-(difluoromethoxy)phenyl]-1-methyl-5-oxo-4,5-dihydro-1H-imidazol-4-yl}phenyl)cyclobutylidene]acetate], the melting point lay in the range of 78 to 80 °C.

With `COC(=O)CC1CC(c2cccc(C3(c4ccc(OC(F)F)cc4)N=C(N)N(C)C3=O)c2)C1` (centres unmarked) [Example 92, methyl [3-(3-{2-amino-4-[4-(difluoromethoxy)phenyl]-1-methyl-5-oxo-4,5-dihydro-1H-imidazol-4-yl}phenyl)cyclobutyl]acetate], the melting point lay within 68 to 70 °C.
